Activity calls are given as the source filed them.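 The calls were made as follows: active = compounds giving half or more protection of infected cells from virus-caused growth loss, again on retest; inactive = the rest.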
Tested on: CEM cells HIV-1 protection, formazan growth assay
Assay: NCI AIDS Antiviral Assay
Settings: for IC50: measured here: growth of uninfected CEM cells
Summary of the method: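 Steps: treat uninfected and HIV-1-infected human CEM cells at five drug levels; quantify growth by soluble formazan; retest any compound reaching 50% protection; classify actives from the retest.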

Row | Compound | outcome | EC50 [µM] | IC50 [µM]
1 | CC(=O)c1cccc(C(C)=O)c1N=Cc1ccc(O)cc1 | inactive |  | 
2 | COc1ccc2nc3cc(Cl)ccc3c(NCCCNCCCNc3c4ccc(Cl)cc4nc4ccc(OC)cc34)c2c1 |  | > 2 | 0.0148
3 | c1cnn(P2(n3cccn3)=NP(n3cccn3)(n3cccn3)=NP(n3cccn3)(n3cccn3)=NP(n3cccn3)(n3cccn3)=NP(n3cccn3)(n3cccn3)=NP(n3cccn3)(n3cccn3)=N2)c1 |  | > 200 | > 200
4 | COc1cc2c(cc1O)C1C(O)C(O)C=C3CCN(C2)C31 (stereo not given) | inactive |  | 
5 | CCN(CC)CCSc1c2cc(OC)ccc2nc2ccc(OC)cc12 |  | > 200 | 2.95
6 | O=C(CCCN1CCC(n2c(=O)[nH]c3ccccc32)CC1)c1ccc(F)cc1 |  | > 200 | 89.1
7 | CCN(C(=S)N[C@@H](Cc1ccccc1)C(=O)N[C@@H](CC(C)C)C(=O)OC)c1ccccc1 |  | > 200 | 25.7
8 | CC(C)(C)OC(=O)N[C@H]1CC(O)c2ccccc2N(CC(=O)O)C1=O (stereo not given in full) |  | > 251 | > 251
9 | O=C(O)CSC(=S)NCCNC(=S)SCC(=O)O |  | > 95.5 | 72.4
10 | C[N+]1(C)C/C(=C\C=C\c2ccccc2)C(=O)/C(=C/C=C/c2ccccc2)C1 |  | > 7.76 | > 7.76
11 | CCOC(=O)/C(C#N)=C/c1cccc([N+](=O)[O-])c1 |  | > 21.4 | > 21.4
12 | Cc1c(O)c2ccccc2c2c1sc(NCCO)[n+]2C |  | > 79.4 | 40.7
13 | Cc1ccc(S(=O)(=O)C(C#N)c2nc3ccccc3nc2N2CCOCC2)cc1 (stereo not given) |  | > 16.6 | > 16.6
14 | COc1ccc(N=C(CS(=O)c2ccc(C)cc2)C(F)(F)F)cc1 (stereo not given) |  | > 200 | 91.2
15 | COC1/C=C\OC2(C)Oc3c(C)c(O)c4c(O)c(c(CN(C)C)c(O)c4c3C2=O)NC(=O)/C(C)=C\C=C/C(C)C(O)C(C)C(O)C(C)C(OC(C)=O)C1C (stereo not given) | inactive |  | 
16 | O=c1cc(-c2ccccc2)ss1 |  | > 200 | 105
17 | CC1CC(C)c2c(O)c3c(c(O)c2N1)C(=O)c1ccccc1C3=O (stereo not given) |  | > 16.2 | 8.71
18 | O=c1ccc2ccc(S)cc2o1 |  | > 200 | 32.4
19 | CC1(C)OCC(COC(=O)C=[N+]=[N-])O1 (stereo not given) |  | > 200 | > 200
20 | O=C1C(Cl)N(c2cccc(Cl)c2)C1c1c[nH]c2ccccc12 (stereo not given) |  | > 282 | 102
21 | O=c1[nH]c2ccccc2c(=O)n1/N=C\c1ccc([N+](=O)[O-])cc1 |  | > 200 | > 200
22 | CNc1nc2n(CCO)c(-c3ccccc3)c(-c3ccccc3)nc-2c(=O)n1 |  | > 50.1 | 26.3

Row | Compound | outcome | EC50 [µM] | IC50 [µM]
23 | Clc1ccccc1C1=NN(c2ccccc2)C2c3ccccc3OCC12 (stereo not given) |  | > 72.4 | > 72.4
24 | CC1=NNC(=O)C1C1CC(c2c[nH]c3ccccc23)=NN(C(N)=O)C1=O (stereo not given) |  | > 200 | > 100
25 | O=[N+]([O-])c1ccccc1OS(=O)(=O)c1ccccc1 | inactive |  | 
26 | COc1c(OC)c(C2(O)C(=O)N(C)c3ccccc32)c2c(c1C1(O)C(=O)N(C)c3ccccc31)OCO2 (stereo not given) |  | > 200 | > 200
27 | CC1CC(=O)N2CCCNC2=C1C#N (stereo not given) |  | > 200 | > 200
28 | C=CC[P@@]1(=O)O[C@H](c2ccccc2)C(C)N1C(C)C (stereo not given in full) | inactive |  | 
29 | CC1=C(C(=O)Nc2ccc(C)cc2)C(c2cccc([N+](=O)[O-])c2)C(C(=O)Nc2ccc(C)cc2)=C(C)N1 |  | > 14.5 | > 14.5
30 | CC(C)(C)OC(=O)C1C(=O)C(C(=O)OC(C)(C)C)C2(C)C(C(=O)OC(C)(C)C)C(=O)C(C(=O)OC(C)(C)C)C12C (stereo not given) |  | > 31.6 | 11.2
31 | CC1(CC2=C(Br)CCCC2)C(=O)CC=C1O (stereo not given) |  | > 200 | 174
32 | O=C1C(=O)N(C2C3CC4CC(C3)CC2C4)C(=O)C(=O)C1c1nc2ccccc2o1 (stereo not given) |  | > 91.2 | 52.5
33 | Cc1cc(N(CCC#N)CCC#N)ccc1/C=C1N=C(/C=C\c2ccccc2)N(c2ccc(Cl)cc2)C\1=O | inactive |  | 
34 | COC(=O)C(=O)C1CCCC(c2nc3n(c2O)C(=N)N=N3)C1=O (stereo not given) |  | > 776 | > 776
35 | O=C(O)c1nc2ccc(C(F)(F)F)cc2nc1NCc1ccc(F)cc1 |  | > 200 | 15.8
36 | CC1=C(c2cc(C(=O)Nc3ccc(Cl)cc3)nc(=S)[nH]2)Sc2ccccc2N1 |  | > 85.1 | > 85.1
37 | O=C(Nc1ccccc1)c1cc(C(=O)Nc2ccccc2)[nH]n1 | inactive |  | 
38 | O=[N+]([O-])c1ccccc1NC1CCN(CCCC2(c3ccc(F)cc3)OCCO2)CC1 |  | > 200 | 12.9
39 | S=C(N/N=C(/c1ccccc1)c1ccccn1)Nc1ccc(Cl)cc1 |  | > 0.2 | 0.123
40 | CCOC(=O)NN1C(=O)c2cccc3c([N+](=O)[O-])ccc(c23)C1=O |  | > 2 | 0.224
41 | COc1ccc(NC(=O)CC(=O)N2N=C(N3c4ccccc4Sc4ccccc43)CC2c2ccccc2)cc1 (stereo not given) | inactive |  | 
42 | C=CCn1cnc2c(=O)[nH]c(Nc3ccccc3)nc21 |  | > 151 | > 151
43 | CC(=O)Oc1ccc2c(c1)O/C(=C\c1ccc(N(C)C)cc1)C2=O |  | > 200 | 28.8
44 | O=c1nc(Nc2cccc(Cl)c2)oc2cc(Cl)oc(=O)c12 |  | > 79.4 | 11.5

Row | Compound | outcome | EC50 [µM] | IC50 [µM]
45 | NCCCN1CCN(CC(=O)O)CCN(CCCN)CCN(CC(=O)O)CC1 |  | > 200 | 4.37
46 | CC1=NN(C(=O)c2ccc(Cl)cc2)C(=O)/C1=C/c1ccco1 |  | > 22.9 | > 22.9
47 | O=C(CN1CCCCC1)c1ccc2[nH]c(=O)oc2c1 |  | > 200 | 129
48 | COc1ccc(NC2=NCCO2)c2ccccc12 |  | > 200 | 46.8
49 | C=CCNc1nc(C#N)c(N)s1 |  | > 200 | > 200
50 | N.N.NCCCCCN.O=C([O-])CC(=O)[O-].O=C([O-])CC(=O)[O-].[Pt+4].[Pt+4] |  | > 2140 | 6.76
51 | O=C(NO)c1ccc([N+](=O)[O-])cc1 |  | > 200 | 29.5
52 | C/C(=N/NC(=S)Nc1cccc(Cl)c1)c1ccccn1 |  | > 0.2 | 0.0851
53 | CC1=N/C(=C\c2cccc(Br)c2)C(=O)O1 |  | > 97.7 | 66.1
54 | CCCCCCCCCCNC(=S)OCCCC | inactive |  | 
55 | N=C(N)SCc1c2ccccc2c(CSC(=N)N)c2ccccc12 |  | > 20 | 3.16
56 | O=C1CN(O)C(c2ccccc2)=c2cc(Cl)ccc2=N1 |  | > 200 | > 200
57 | COc1cccc(NC(=O)CC(=O)N2N=C(C)C(N=Nc3ccc(C(=O)O)cc3)C2=O)c1 (stereo not given) |  | > 200 | 63.1
58 | O=C(Nc1ccc(C(F)(F)F)cc1[N+](=O)[O-])C(=O)Nn1c(=S)[nH]c2ccccc2c1=O |  | > 79.4 | > 79.4
59 | O=S1(=O)OCCOS(=O)(=O)C1(Br)Br |  | > 363 | > 363
60 | CC(=O)Nc1ccc2nncnc2c1 |  | > 200 | > 200
61 | O=C1c2ccncc2C(=O)c2c(O)ccc(O)c21 |  | > 6.03 | 3.24
62 | CCN(CC)CCOc1ccc2c(c1)C(=O)c1cc(OCCN(CC)CC)ccc1-2 |  | > 200 | 12.3
63 | CCCCCCCCCOC(=S)NC | inactive |  | 
64 | C=C(C(=C)N1N=NC2C3CCC(C3)C21)N1N=NC2C3CCC(C3)C21 (stereo not given) |  | > 2.34 | > 2.34
65 | CN1C(=O)C(Br)SC1=S (stereo not given) |  | > 31.6 | > 31.6

Source: PubChem BioAssay AID179 (DTP/NCI, 2004)
